Where two headings read alike, the source gives them in different places.
Target: T1, indoleamine 2,3-dioxygenase (IDO) (Homo sapiens, UniProt P14902)
T1 construct: replaced with media containing IFNγ (#285-IF/CF, R&D Systems) at a final concentration of 25 ng/mL; endogenous in cells; host or cells: HeLa (ATCC CCL-2), IFN-gamma stimulated
Assay: HeLa cell-based indoleamine 2,3-dioxygenase (IDO) assay, kynurenine production
Details: HeLa cells, IFNγ 25 ng/mL, 48 hour incubation
Experimental: Assessment of Inhibitor Activity in HeLa Cell-Based Indoleamine 23-Dioxygenase (IDO) Assay
Cells were maintained in a humidified incubator at 37° C. in 5% CO2.
IDO activity was assessed as a function of kynurenine production as follows: HeLa cells were seeded in a 96-well culture plate at a density of 5,000 cells/well and allowed to equilibrate overnight. […] A serial dilution of each test compound was added to the cells in a total volume of 200 μL of culture medium. After a further 48 hour incubation, 170 μL of supernatant was transferred from each well to a fresh 96-well plate. 12.1 μL of 6.1N trichloroacetic acid (#T0699, Sigma-Aldrich) was added to each well and mixed, followed by incubation at 65° C. for 20 minutes to hydrolyze N-formylkynurenine, the product of indoleamine 2,3-dioxygenase, to kynurenine. The reaction mixture was then centrifuged for 10 mins at 500×g to sediment the precipitate. 100 μL of the supernatant was transferred from each well to a fresh 96-well plate. […] Kynurenine concentrations were determined by measuring absorbance at 480 nm and calibrating against an L-kynurenine (#K8625, Sigma-Aldrich) standard curve using a SPECTRAMAX® M2e microplate reader (Molecular Devices). The percentage activity at each inhibitor concentration was determined and IC50 values assessed using nonlinear regression.

[1] = read-out: IDO Hela IC50 class (A < 50, B < 250, C < 2000)

T1 sequence (P14902 whole entry): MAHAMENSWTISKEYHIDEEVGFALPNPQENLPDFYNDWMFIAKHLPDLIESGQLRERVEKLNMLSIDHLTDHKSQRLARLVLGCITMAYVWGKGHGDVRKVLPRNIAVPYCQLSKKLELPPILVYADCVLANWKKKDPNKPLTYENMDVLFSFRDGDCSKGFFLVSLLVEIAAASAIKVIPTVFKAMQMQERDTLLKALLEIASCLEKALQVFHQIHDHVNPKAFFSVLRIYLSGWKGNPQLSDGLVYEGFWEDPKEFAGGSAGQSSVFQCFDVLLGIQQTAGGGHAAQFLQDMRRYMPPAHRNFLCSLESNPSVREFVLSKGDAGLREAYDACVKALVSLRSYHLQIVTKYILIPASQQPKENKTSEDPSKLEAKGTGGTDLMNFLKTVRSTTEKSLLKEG

In the case of `CCO[C@@H](c1ccc([C@@H](CC)CC(=O)O)cc1Nc1ccc(F)cc1)C(F)(F)F` (single isomer, unassigned) [Example 51], the IC50 (read-out: IDO Hela IC50) is reported as 20 nM and the IC50 [1] is reported as < 50 nM.

In the case of `CCO[C@H](c1ccc([C@H](COC)CC(=O)O)cc1Nc1ncc(F)cn1)C(F)(F)F` (single isomer, unassigned) [Example 56], the IC50 [1] is reported as 250 to 2000 nM.

`CCO[C@@H](c1ccc([C@H](COC)CC(=O)O)cc1NC(=O)Nc1ccc(Cl)cc1F)C(F)(F)F` (single isomer, unassigned) [Example 68] gave an IC50 (read-out: IDO Hela IC50) of 240 nM.

For `CC[C@H](CC(=O)O)c1ccc([C@@H](OC)C(F)(F)F)c(Nc2ccc(C#N)cc2)c1` (relative stereo) [Example 89, (R)-3-(3-((4-cyanophenyl)amino)-4-((R)-2,2,2-trifluoro-1-methoxyethyl)phenyl)pentanoic acid], the IC50 [1] was < 50 nM.

Compound `CC[C@@H](CC(=O)O)c1ccc([C@@H](CC)N2CCOCC2)c(Nc2cnc(C(F)(F)F)nc2)c1` (relative stereo) [Example 130, (S)-3-(4-((R)-1-morpholinopropyl)-3-((2-(trifluoromethyl)pyrimidin-5-yl)amino)phenyl)pentanoic acid] has an IC50 (read-out: IDO Hela IC50) of 90 nM.

For `CCO[C@@H](c1ccc([C@H](CC)CC(=O)O)cc1Nc1cnc(CC)nc1)C(F)(F)F` (single isomer, unassigned) [Example 40], the IC50 (read-out: IDO Hela IC50) was 20 nM.

`CCO[C@H](c1ccc([C@H](COC)CC(=O)O)cc1Nc1ccc(Cl)cc1)C(F)(F)F` (single isomer, unassigned) [Example 58] showed an IC50 (read-out: IDO Hela IC50) of 20 nM.

`CCO[C@@H](c1ccc([C@@H](COC)CC(=O)O)cc1Nc1ccc(Cl)cc1)C(F)(F)F` (single isomer, unassigned) [Example 79] gave an IC50 (read-out: IDO Hela IC50) of 10 nM.

In the case of `CC[C@@H](CC(=O)O)c1ccc([C@H](OC)C(F)(F)F)c(Nc2cnc(C(F)(F)F)nc2)c1` (single isomer, unassigned) [Example 100], the IC50 (read-out: IDO Hela IC50) is reported as 10 nM.

`CC[C@@H](c1ccc([C@@H](COC)CC(=O)O)cc1Nc1ccc(F)cc1)N1CCOCC1` (single isomer, unassigned) [Example 106] gave an IC50 (read-out: IDO Hela IC50) of 10 nM.

`CC[C@H](CC(=O)O)c1ccc([C@@H](CC)C2CCOCC2)c(Nc2ccc(COC)nc2)c1` (single isomer, unassigned) [Example 129] showed an IC50 (read-out: IDO Hela IC50) of 310 nM and an IC50 [1] of 50 to 250 nM.

Work on `CCO[C@@H](c1ccc([C@@H](CC)CC(=O)O)cc1Nc1cnc(COC)nc1)C(F)(F)F` (single isomer, unassigned) [Example 49] yielded an IC50 (read-out: IDO Hela IC50) of 440 nM.

`CCO[C@@H](c1ccc([C@@H](CC)CC(=O)O)cc1NC(=O)Nc1ccc(C)cc1)C(F)(F)F` (single isomer, unassigned) [Example 41] gave an IC50 (read-out: IDO Hela IC50) of 20 nM.

With `CCO[C@@H](c1ccc([C@H](CC)CC(=O)O)cc1Nc1cnc(C)nc1)C(F)(F)F` (single isomer, unassigned) [Example 39] the IC50 (read-out: IDO Hela IC50) was 100 nM.

In the case of `CCOc1cnc(Nc2cc([C@H](CC)CC(=O)O)ccc2[C@@H](OCC)C(F)(F)F)cn1` (single isomer, unassigned) [Example 13], the IC50 (read-out: IDO Hela IC50) is reported as 10 nM.

`CCOc1ncc(Nc2cc([C@H](CC)CC(=O)O)ccc2[C@H](OC)C(F)(F)F)cn1` (relative stereo) [Example 95, (R)-3-(3-((2-ethoxypyrimidin-5-yl)amino)-4-((S)-2,2,2-trifluoro-1-methoxyethyl)phenyl)pentanoic acid] was tested, and the IC50 (read-out: IDO Hela IC50) was 10 nM.

`CC[C@H](c1ccc([C@@H](COC)CC(=O)O)cc1Nc1ccc(F)cc1)N1CCOCC1` (single isomer, unassigned) [Example 111] showed an IC50 [1] of 250 to 2000 nM.

For `CCO[C@H](c1ccc([C@@H](COC)CC(=O)O)cc1NC(=O)Nc1ccc(Cl)cc1F)C(F)(F)F` (single isomer, unassigned) [Example 61], the IC50 (read-out: IDO Hela IC50) was 190 nM.

`CC[C@@H](CC(=O)O)c1ccc([C@@H](CC)N2CCOCC2)c(Nc2ccc(C#N)cc2)c1` (single isomer, unassigned) [Example 124] was tested, and the IC50 (read-out: IDO Hela IC50) was 70 nM.

For `CC[C@H](CC(=O)O)c1ccc([C@@H](CC)C2CCOCC2)c(Nc2ccc(COC)nc2)c1` (single isomer, unassigned) [Example 127], the IC50 [1] was < 50 nM.

In the case of `CC[C@H](CC(=O)O)c1ccc([C@H](OC)C(F)(F)F)c(Nc2ccc(C#N)cc2)c1` (single isomer, unassigned) [Example 93], the IC50 [1] is reported as < 50 nM.

Compound `CCO[C@@H](c1ccc([C@H](COC)CC(=O)O)cc1Nc1ccc(C#N)c(F)c1)C(F)(F)F` (relative stereo) [Example 70, (R)-3-(3-((4-cyano-3-fluorophenyl)amino)-4-((S)-1-ethoxy-2,2,2-trifluoroethyl)phenyl)-4-methoxybutanoic acid] has an IC50 (read-out: IDO Hela IC50) of 30 nM.

`CCO[C@H](c1ccc([C@H](CC)CC(=O)O)cc1NC(=O)Nc1ccc(Cl)cc1F)C(F)(F)F` (single isomer, unassigned) [Example 9] was tested, and the IC50 (read-out: IDO Hela IC50) was 10 nM.

Compound `CCO[C@H](c1ccc([C@@H](COC)CC(=O)O)cc1Nc1cnc(C)nc1)C(F)(F)F` (single isomer, unassigned) [Example 67] has an IC50 (read-out: IDO Hela IC50) of 410 nM.

For `CCO[C@H](c1ccc([C@@H](CC)CC(=O)O)cc1Nc1ccc(F)cc1)C(F)(F)F` (relative stereo) [Example 30, (S)-3-(4-((R)-1-ethoxy-2,2,2-trifluoroethyl)-3-((4-fluorophenyl)amino)phenyl)pentanoic acid], the IC50 [1] was < 50 nM.

With `CCOc1ncc(Nc2cc([C@@H](CC)CC(=O)O)ccc2[C@H](CC)N2CCOCC2)cn1` (single isomer, unassigned) [Example 118-1] the IC50 (read-out: IDO Hela IC50) was 750 nM.

In the case of `CC[C@H](CC(=O)O)c1ccc([C@H](OC)C(F)(F)F)c(Nc2ccc(Cl)cc2)c1` (single isomer, unassigned) [Example 84-1], the IC50 [1] is reported as < 50 nM.

With `CCO[C@@H](c1ccc([C@H](CC)CC(=O)O)cc1NC(=O)Nc1ccc(Cl)cc1F)C(F)(F)F` (single isomer, unassigned) [Example 32] the IC50 [1] was < 50 nM.

With `CCc1ncc(Nc2cc([C@H](CC)CC(=O)O)ccc2[C@H](CC)C2CCOCC2)cn1` (single isomer, unassigned) [Example 128] the IC50 (read-out: IDO Hela IC50) was 120 nM.

With “(S)-3-(3-(3-(4-cyano-3-fluorophenyl)ureido)-4-((R)-1-ethoxy-2,2,2-trifluoroethyl)phenyl)-4-methoxybutanoic acid [Example 63]” the IC50 (read-out: IDO Hela IC50) was 20 nM and the IC50 [1] was < 50 nM.

In the case of `CC[C@@H](CC(=O)O)c1ccc([C@@H](OC)C(F)(F)F)c(Nc2ccc(Cl)cc2)c1` (single isomer, unassigned) [Example 83-1], the IC50 [1] is reported as < 50 nM.

In the case of `CCO[C@@H](c1ccc([C@H](COC)CC(=O)O)cc1Nc1ncc(F)cn1)C(F)(F)F` (single isomer, unassigned) [Example 71], the IC50 [1] is reported as 250 to 2000 nM.

In the case of `CC[C@H](CC(=O)O)c1ccc([C@@H](CC)N2CCOCC2)c(Nc2ccc(Cl)cc2)c1` (relative stereo) [Example 123, (R)-3-(3-((4-chlorophenyl)amino)-4-((R)-1-morpholinopropyl)phenyl)pentanoic acid], the IC50 [1] is reported as < 50 nM.

`CC[C@H](c1ccc([C@@H](COC)CC(=O)O)cc1Nc1ccc(C#N)cc1)N1CCOCC1` (single isomer, unassigned) [Example 101-2] showed an IC50 [1] of 250 to 2000 nM.

In the case of `CCO[C@H](c1ccc([C@H](CC)CC(=O)O)cc1Nc1cnc(OC)cn1)C(F)(F)F` (single isomer, unassigned) [Example 14], the IC50 (read-out: IDO Hela IC50) is reported as 10 nM.

With `CCOc1ncc(Nc2cc([C@H](CC)CC(=O)O)ccc2[C@@H](OCC)C(F)(F)F)cn1` (single isomer, unassigned) [Example 12] the IC50 (read-out: IDO Hela IC50) was 20 nM.

`CCO[C@H](c1ccc([C@H](CC)CC(=O)O)cc1Nc1cnc(CC)nc1)C(F)(F)F` (relative stereo) [Example 18, (R)-3-(4-((R)-1-ethoxy-2,2,2-trifluoroethyl)-3-((2-ethylpyrimidin-5-yl)amino)phenyl)pentanoic acid] showed an IC50 (read-out: IDO Hela IC50) of 40 nM.

In the case of `CCO[C@@H](c1ccc([C@@H](CC)CC(=O)O)cc1Nc1cnc(OC)nc1)C(F)(F)F` (single isomer, unassigned) [Example 43], the IC50 (read-out: IDO Hela IC50) is reported as 10 nM.

In the case of `CCO[C@H](c1ccc([C@H](CC)CC(=O)O)cc1NC(=O)Nc1ccc(C)cc1)C(F)(F)F` (single isomer, unassigned) [Example 7], the IC50 (read-out: IDO Hela IC50) is reported as 60 nM.

`CC[C@@H](CC(=O)O)c1ccc([C@@H](OC)C(F)(F)F)c(Nc2cnc(C(F)(F)F)nc2)c1` (single isomer, unassigned) [Example 88] gave an IC50 (read-out: IDO Hela IC50) of 10 nM.

In the case of `CCO[C@@H](c1ccc([C@H](COC)CC(=O)O)cc1Nc1ccc(C#N)cc1)C(F)(F)F` (relative stereo) [Example 73, (R)-3-(3-((4-cyanophenyl)amino)-4-((S)-1-ethoxy-2,2,2-trifluoroethyl)phenyl)-4-methoxybutanoic acid], the IC50 (read-out: IDO Hela IC50) is reported as 10 nM.

`CCO[C@H](c1ccc([C@H](COC)CC(=O)O)cc1Nc1cnc(OC)nc1)C(F)(F)F` (relative stereo) [Example 54, 3-(4-(1-ethoxy-2,2,2-trifluoroethyl)-3-((2-methoxypyrimidin-5-yl)amino)phenyl)-4-methoxybutanoic Acid] gave an IC50 (read-out: IDO Hela IC50) of 100 nM.

`CCO[C@@H](c1ccc([C@H](COC)CC(=O)O)cc1Nc1cnc(C)nc1)C(F)(F)F` (single isomer, unassigned) [Example 74] showed an IC50 [1] of 250 to 2000 nM.
